Assay results as given in patent US7186864B2, “Glucocorticoid mimetics, methods of making them, pharmaceutical compositions, and uses thereof” (Boehringer Ingelheim Pharmaceuticals, Inc., priority 2002, dated 2007).

Target: T1, human glucocorticoid receptor (GR) complex (Homo sapiens, UniProt P04150)
T1 construct: made in house; host or cells: insect expression system (baculovirus lysate)
T1 sequence (P04150 1-777): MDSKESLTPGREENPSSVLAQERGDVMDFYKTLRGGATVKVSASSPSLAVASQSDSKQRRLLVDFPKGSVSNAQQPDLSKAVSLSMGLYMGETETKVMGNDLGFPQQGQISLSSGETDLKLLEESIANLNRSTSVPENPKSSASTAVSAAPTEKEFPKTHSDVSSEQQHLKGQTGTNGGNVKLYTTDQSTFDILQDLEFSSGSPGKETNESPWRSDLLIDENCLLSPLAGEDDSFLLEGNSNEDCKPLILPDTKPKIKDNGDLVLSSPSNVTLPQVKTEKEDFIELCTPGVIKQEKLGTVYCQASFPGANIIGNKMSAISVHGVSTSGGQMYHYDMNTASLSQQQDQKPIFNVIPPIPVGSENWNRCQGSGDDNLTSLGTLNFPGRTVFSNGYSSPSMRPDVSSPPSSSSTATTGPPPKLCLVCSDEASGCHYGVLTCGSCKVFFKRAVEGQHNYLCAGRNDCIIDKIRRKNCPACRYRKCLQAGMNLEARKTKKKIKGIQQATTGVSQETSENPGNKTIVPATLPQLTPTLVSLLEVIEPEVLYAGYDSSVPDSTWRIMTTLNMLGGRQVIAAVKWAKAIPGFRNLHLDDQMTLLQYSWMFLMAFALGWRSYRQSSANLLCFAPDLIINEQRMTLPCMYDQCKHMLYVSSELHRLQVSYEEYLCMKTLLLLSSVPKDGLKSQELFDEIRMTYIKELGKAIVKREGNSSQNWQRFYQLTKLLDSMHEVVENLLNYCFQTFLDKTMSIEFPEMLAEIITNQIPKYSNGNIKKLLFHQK
Assay: Glucocorticoid receptor competitive binding assay (fluorescence polarization, TAMRA-labeled dexamethasone probe)
Settings: qualitative statement, values not given
Experimental: Compounds of the invention were evaluated for binding to the steroid receptor by a fluorescence polarization competitive binding assay. Detailed descriptions for preparation of recombinant glucocorticoid receptor (GR) complex used in the assay is described in Goldrick et al., U.S. provisional application No. 60/291,877, filed May 18, 2001 (corresponding to Goldrick et al., U.S. nonprovisional application No. 10/151,133, filed May 20, 2002) both incorporated herein by reference in their entirety. Preparation of the tetramethyl rhodamine (TAMRA)-labeled dexamethasone probe was accomplished using a standard literature procedure (M. Pons et al., J. Steroid Biochem., 1985, 22, pp. 267–273).
A. Glucocorticoid Receptor Competitive Binding Assay
Step 1. Characterization of the Fluorescent Probe
The wavelengths for maximum excitation and emission of the fluorescent probe should first be measured. An example of such a probe is rhodamine (TAMRA)-labeled dexamethasone.
The affinity of the probe for the steroid receptor was then determined in a titration experiment. The fluorescence polarization value of the probe in assay buffer was measured on an SLM-8100 fluorometer using the excitation and emission maximum values described above. Aliquots of expression vector lysate were added and fluorescence polarization was measured after each addition until no further change in polarization value was observed. Non-linear least squares regression analysis was used to calculate the dissociation constant of the probe from the polarization values obtained for lysate binding to the probe.
Step 2. Screening for Inhibitors of Probe Binding
This assay uses fluorescence polarization (FP) to quantitate the ability of test compounds to compete with tetramethyl rhodamine (TAMRA)-labeled dexamethasone for binding to a human glucocorticoid receptor (GR) complex prepared from an insect expression system. The assay buffer was: 10 mM TES, 50 mM KCl, 20 mM Na2MoO4.2H2O, 1.5 mM EDTA, 0.04% w/v CHAPS, 10% v/v glycerol, 1 mM dithiothreitol, pH 7.4. Test compounds were dissolved to 1 mM in neat DMSO and then further diluted to 10× assay concentration in assay buffer supplemented with 10% v/v DMSO. Test compounds were serially diluted at 10× assay concentrations in 10% DMSO-containing buffer in 96-well polypropylene plates. Binding reaction mixtures were prepared in 96-well black Dynex microtiter plates by sequential addition of the following assay components to each well: 15 μL of 10× test compound solution, 85 μL of GR-containing baculovirus lysate diluted 1:170 in assay buffer, and 50 μL of 15 nM TAMRA-labeled dexamethasone. Positive controls were reaction mixtures containing no test compound; negative controls (blanks) were reaction mixtures containing 0.7 μM to 2 μM dexamethasone. The binding reactions were incubated for 1 hour at room temperature and then read for fluorescence polarization in the LJL Analyst set to 550 nm excitation and 580 nm emission, with the Rhodamine 561 dichroic mirror installed. IC50 values were determined by iterative non-linear curve fitting of the FP signal data to a 4-parameter logistic equation.

activity in the GR binding assay | Structure (SMILES)
demonstrated activity | Cc1cc(C)cc(CC(N)(CC(C)(C)c2cc(F)ccc2O)C(F)(F)F)c1 (stereo not shown) [Compound 6, 2-[3-Amino-3-(3,5-dimethyl-benzyl)-4,4,4-trifluoro-1,1-dimethyl-butyl]-4-fluoro-phenol]
demonstrated activity | COc1ccc(F)cc1C(C)(C)CC(N)(Cc1cc(Cl)cc(Cl)c1)C(F)(F)F (stereo not shown) [Compound 2, 1-(3,5-Dichloro-benzyl)-3-(5-fluoro-2-methoxy-phenyl)-3-methyl-1-trifluoromethyl-butylamine]
demonstrated activity | CC(C)(CC(N)(Cc1cc(Cl)cc(Cl)c1)C(F)(F)F)c1cc(F)ccc1O (stereo not shown) [Compound 7, 2-[3-Amino-3-(3,5-dichloro-benzyl)-4,4,4-trifluoro-1,1-dimethyl-butyl]-4-fluoro-phenol]

The next lines start with the compound.

Structure (SMILES) | activity in the GR binding assay
COc1ccc(F)cc1C(C)(C)CC(N)(Cc1cc(C)cc(C)c1)C(F)(F)F (stereo not shown) [Compound 1, 1-(3,5-Dimethyl-benzyl)-3-(5-fluoro-2-methoxy-phenyl)-3-methyl-1-trifluoromethyl-butylamine] | demonstrated activity
COc1ccc(F)cc1C(C)(C)CC(N)(Cc1cc(C(F)(F)F)cc(Cl)c1F)C(F)(F)F (stereo not shown) [Compound 4, 1-(3-Chloro-2-fluoro-5-trifluoromethyl-benzyl)-3-(5-fluoro-2-methoxy-phenyl)-3-methyl-1-trifluoromethyl-butylamine] | demonstrated activity
COc1ccc(F)cc1C(C)(C)CC(N)(Cc1ccc(C#N)cc1Cl)C(F)(F)F (stereo not shown) [Compound 5, 4-[2-Amino-4-(5-fluoro-2-methoxy-phenyl)-4-methyl-2-trifluoromethyl-pentyl]-3-chloro-benzonitrile] | demonstrated activity
COc1ccc(F)cc1C(C)(C)CC(N)(Cc1ccc(Cl)c(Cl)c1)C(F)(F)F (stereo not shown) [Compound 3, 1-(3,4-Dichloro-benzyl)-3-(5-fluoro-2-methoxy-phenyl)-3-methyl-1-trifluoromethyl-butylamine] | demonstrated activity
